What is called MIC is the least concentration at which growth counts as inhibited.

Starred links: 1 amine or outer side, 2 acyl side, 3 side chain; linkers in the order of their positions; H or OH if unused. Positions of bridges follow the written chain, without caps; N, C: chain ends. Non-standard residues stand in square brackets, D forms with d. Residues, ends and D or L forms follow the SMILES beside them. Groups on a side chain read outwards from the residue. ξ: configuration not given here. *: point of attachment. X10 = CC(C)=CCC/C(C)=C/C(=O)NC(C)C(N[*:1])C(=O)[*:2]; X42 = CC(NC(=O)CNCc1ccccc1)C(N[*:1])C(=O)[*:2]; ξAbu(βξ-NH2) = CC(N[*:3])C(N[*:1])C(=O)[*:2]; X41 = CC(NC(=O)C1CCCCC1)C(N[*:1])C(=O)[*:2]; X16 = CCC(=O)C(=O)NC(C)C(N[*:1])C(=O)[*:2]; X36 = CC(NC(=O)CN(C)C)C(N[*:1])C(=O)[*:2]; Pentadecanoyl = CCCCCCCCCCCCCCC(=O)*; ξAsp(βξ-Me) = CC(C(=O)O)C(N)C(=O)O; X12 = O=C(c1ccc(NN[*:1])cc1)[*:2]; X1 = O=C(Cc1ccc(N[*:1])cc1)[*:2]; Myristoyl = CCCCCCCCCCCCCC(=O)*; ξAbu(3ξ-NH2) = CC(N)C(N)C(=O)O; NH(CH2)11CH3 = CCCCCCCCCCCCN*; Lauroyl = CCCCCCCCCCCC(=O)*; 4Abz = Nc1ccc(C(=O)O)cc1; Dab = NCC[C@H](N)C(=O)O; Pip = O=C(O)[CH]1CCCCN1; Hexanoyl = CCCCCC(=O)*; ξD = NC(CC(=O)O)C(=O)O; ξPip = O=C(O)C1CCCCN1; CO = O=C([*:1])[*:2]; ξV = CC(C)C(N)C(=O)O; ξP = O=C(O)C1CCCN1; GABA = NCCCC(=O)O

For one assay, the system named is Staphylococcus aureus (MSSA). The note with it: 24 h. In short, it runs like this:
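Broth microdilution MIC per NCCLS M7-A6 with doubling serial dilutions, in cation-adjusted Mueller-Hinton broth supplemented with 0.625 mM calcium.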
For `CCCCCCCCCCCCCCC(=O)NC(CC(=O)O)C(=O)NC1C(=O)N2CCCCC2C(=O)NC(C(C)C(=O)O)C(=O)NC(CC(=O)O)C(=O)NCC(=O)NC(CC(=O)O)C(=O)NCC(=O)NC(C(C)NC(=O)CNC(=O)[C@H](CCCCN)NC(=O)[C@@H](N)CCCCN)C(=O)NC(C(C)C)C(=O)N2CCCC2C(=O)NC1C` (stereo partly drawn) [Compound 191, C15-Amphomycin-9-Gly-Lys-Lys], the MIC was 8 µg/mL.

As to `CCCCCCCCCCCCCC(=O)Nc1ccc(CC(=O)NC(CC(=O)O)C(=O)NC2C(=O)N3CCCCC3C(=O)NC(C(C)C(=O)O)C(=O)NC(CC(=O)O)C(=O)NCC(=O)NC(CC(=O)O)C(=O)NCC(=O)NC(C(C)N)C(=O)NC(C(C)C)C(=O)N3CCCC3C(=O)NC2C)cc1` (stereo not drawn) [Compound 301, C14-(p-Apa)-Amphomycin] (Myristoyl-[X1]D[ξAbu(βξ-NH2)][Pip][ξAsp(βξ-Me)]DGDG[ξAbu(3ξ-NH2)]VP; lactam 3-C; configuration not given here), the minimal inhibitory concentration (MIC) is 2 µg/mL.

In the case of `CCCCCC(=O)NCC(=O)NC(CC(=O)O)C(=O)NC1C(=O)N2CCCCC2C(=O)NC(C(C)C(=O)O)C(=O)NC(CC(=O)O)C(=O)NCC(=O)NC(CC(=O)O)C(=O)NCC(=O)NC(C(C)N)C(=O)NC(C(C)C)C(=O)N2CCCC2C(=O)NC1C` (stereo not drawn) [Compound 358, C6-Gly-Amphomycin] (Hexanoyl-GD[ξAbu(βξ-NH2)][Pip][ξAsp(βξ-Me)]DGDG[ξAbu(3ξ-NH2)]VP; lactam 3-C; configuration not given here), the MIC was above 64 µg/mL.

On to `CCCCCCCCCCCCCCC(=O)NC(CC(=O)O)C(=O)NC1C(=O)N2CCCCC2C(=O)NC(C(C)C(=O)O)C(=O)NC(CC(=O)O)C(=O)NCC(=O)NC(CC(=O)O)C(=O)NCC(=O)NC(C(C)NC(=O)CCC(=O)O)C(=O)NC(C(C)C)C(=O)N2CCCC2C(=O)NC1C` (stereo not shown) [Compound 352, C15-Amphomycin-9-Suc], for which the MIC was above 64 µg/mL.

Take `CCCCCCCCCCCCCCC(=O)NC(CC(=O)O)C(=O)NC1C(=O)N2CCCCC2C(=O)NC(C(C)C(=O)O)C(=O)NC(CC(=O)O)C(=O)NCC(=O)NC(CC(=O)O)C(=O)NCC(=O)NC(C(C)NC(=O)CCNC(=O)[C@@H](N)C(C)C)C(=O)NC(C(C)C)C(=O)N2CCCC2C(=O)NC1C` (stereo partly drawn) [Compound 174, C15-Amphomycin-9-(β-Ala)-Val]: the minimal inhibitory concentration (MIC) is 2 µg/mL.

For `CCCCCCCCCCCCCCC(=O)NC(CC(=O)O)C(=O)NC1C(=O)N2CCCCC2C(=O)NC(C(C)C(=O)O)C(=O)NC(CC(=O)O)C(=O)NCC(=O)NC(CC(=O)O)C(=O)NCC(=O)NC(C(C)NC(=O)C(=O)CC)C(=O)NC(C(C)C)C(=O)N2CCCC2C(=O)NC1C` (stereo not drawn) [Compound 223, C15-Amphomycin-9-(α-Ketobutyl)] (Pentadecanoyl-D[ξAbu(βξ-NH2)][Pip][ξAsp(βξ-Me)]DGDG[X16]VP; lactam 2-C; configuration not given here), the MIC stood at 16 µg/mL.

In the case of `CCCCCCCCCCCC(=O)Nc1ccc(C(=O)NCC(=O)NC(CC(=O)O)C(=O)NC2C(=O)N3CCCCC3C(=O)NC(C(C)C(=O)O)C(=O)NC(CC(=O)O)C(=O)NCC(=O)NC(CC(=O)O)C(=O)NCC(=O)NC(C(C)N)C(=O)NC(C(C)C)C(=O)N3CCCC3C(=O)NC2C)cc1` (stereo not drawn) [Compound 123, C12-PABA-Gly-Amphomycin] ({Lauroyl-4Abz}-GD[ξAbu(βξ-NH2)][Pip][ξAsp(βξ-Me)]DGDG[ξAbu(3ξ-NH2)]VP; lactam 3-C; configuration not given here), the MIC amounted to 1 µg/mL.

As to `CCCCCCCCCCCCCCC(=O)NC(CC(=O)O)C(=O)NC1C(=O)N2CCCCC2C(=O)NC(C(C)C(=O)O)C(=O)NC(CC(=O)O)C(=O)NCC(=O)NC(CC(=O)O)C(=O)NCC(=O)NC(C(C)NC(=O)/C=C(\C)CCC=C(C)C)C(=O)NC(C(C)C)C(=O)N2CCCC2C(=O)NC1C` (stereo not drawn) [Compound 224, C15-Amphomycin-9-Geranyl] (Pentadecanoyl-D[ξAbu(βξ-NH2)][Pip][ξAsp(βξ-Me)]DGDG[X10]VP; lactam 2-C; configuration not given here), the minimum inhibitory concentration (MIC) amounted to 8 µg/mL.

As for `CCCCCCCCCCCC(=O)NNc1ccc(C(=O)NC(CC(=O)O)C(=O)NC2C(=O)N3CCCCC3C(=O)NC(C(C)C(=O)O)C(=O)NC(CC(=O)O)C(=O)NCC(=O)NC(CC(=O)O)C(=O)NCC(=O)NC(C(C)N)C(=O)NC(C(C)C)C(=O)N3CCCC3C(=O)NC2C)cc1` (stereo not drawn) [Compound 21, C12-p-Hydrazinobenzoic Acid-Amphomycin] (Lauroyl-[X12]D[ξAbu(βξ-NH2)][Pip][ξAsp(βξ-Me)]DGDG[ξAbu(3ξ-NH2)]VP; lactam 3-C; configuration not given here), the MIC amounted to 1 µg/mL.

As for `CCCCCCCCCCCCCCC(=O)NC(CC(=O)O)C(=O)NC1C(=O)N2CCCCC2C(=O)NC(C(C)C(=O)O)C(=O)NC(CC(=O)O)C(=O)NCC(=O)NC(CC(=O)O)C(=O)NCC(=O)NC(C(C)NC(=O)CCCNC(=O)[C@@H](N)C(C)C)C(=O)NC(C(C)C)C(=O)N2CCCC2C(=O)NC1C` (stereo partly shown) [Compound 71, C15-Amphomycin-9-GABA-Val], the minimal inhibitory concentration (MIC) was determined as 4 µg/mL.

With `CCCCCCCCCCCCCCC(=O)N[C@@H](CC(=O)OC)C(=O)NC(CC(=O)O)C(=O)NC1C(=O)N2CCCCC2C(=O)NC(C(C)C(=O)O)C(=O)NC(CC(=O)O)C(=O)NCC(=O)NC(CC(=O)O)C(=O)NCC(=O)NC(C(C)N)C(=O)NC(C(C)C)C(=O)N2CCCC2C(=O)NC1C` (stereo partly drawn) [Compound 313, C15-(Asp-(OME))-Amphomycin] (Pentadecanoyl-D(OMe)[ξD][ξAbu(βξ-NH2)][ξPip][ξAsp(βξ-Me)][ξD]G[ξD]G[ξAbu(3ξ-NH2)][ξV][ξP]; lactam 3-C), the MIC was 0.5 to 1 µg/mL.

With `CCCCCCCCCCCCCCCCNC(=O)NC(CC(=O)O)C(=O)NC1C(=O)N2CCCCC2C(=O)NC(C(C)C(=O)O)C(=O)NC(CC(=O)O)C(=O)NCC(=O)NC(CC(=O)O)C(=O)NCC(=O)NC(C(C)N)C(=O)NC(C(C)C)C(=O)N2CCCC2C(=O)NC1C` (stereo not shown) [Compound 249, CH3—(CH2)15—NH—C(═O)-Amphomycin], the MIC was 2 to 4 µg/mL.

With `CCCCCCCCCCCCCCC(=O)NC(CC(=O)O)C(=O)NC1C(=O)N2CCCCC2C(=O)NC(C(C)C(=O)O)C(=O)NC(CC(=O)O)C(=O)NCC(=O)NC(CC(=O)O)C(=O)NCC(=O)NC(C(C)NC(=O)CCCCC)C(=O)NC(C(C)C)C(=O)N2CCCC2C(=O)NC1C` (stereo not shown) [Compound 201, C15-Amphomycin-9-C6], the MIC came to 32 µg/mL.

`CCCCCCCCCCCCCCC(=O)NC(CC(=O)O)C(=O)NC1C(=O)N2CCCCC2C(=O)NC(C(C)C(=O)O)C(=O)NC(CC(=O)O)C(=O)NCC(=O)NC(CC(=O)O)C(=O)NCC(=O)NC(C(C)NC(=O)CN(C)C)C(=O)NC(C(C)C)C(=O)N2CCCC2C(=O)NC1C` (stereo not drawn) [Compound 268, C15-Amphomycin-9-(N,N-Dimethylglycine)] (Pentadecanoyl-D[ξAbu(βξ-NH2)][Pip][ξAsp(βξ-Me)]DGDG[X36]VP; lactam 2-C; configuration not given here): the MIC is 1 µg/mL.

As to `CCCCCCCCCCCCCC(=O)N(C)CC(=O)NC(CC(=O)O)C(=O)NC1C(=O)N2CCCCC2C(=O)NC(C(C)C(=O)O)C(=O)NC(CC(=O)O)C(=O)NCC(=O)NC(CC(=O)O)C(=O)NCC(=O)NC(C(C)N)C(=O)NC(C(C)C)C(=O)N2CCCC2C(=O)NC1C` (stereo not shown) [Compound 345, C14-Sar-Amphomycin], the MIC was determined as 64 µg/mL.

For the compound `CCCCCCCCCCCCCCC(=O)NC(CC(=O)O)C(=O)NC1C(=O)N2CCCCC2C(=O)NC(C(C)C(=O)O)C(=O)NC(CC(=O)O)C(=O)NCC(=O)NC(CC(=O)O)C(=O)NCC(=O)NC(C(C)NC(=O)CCCNC(=O)[C@@H](N)CCN)C(=O)NC(C(C)C)C(=O)N2CCCC2C(=O)NC1C` (stereo partly drawn) [Compound 159, C15-Amphomycin-9-GABA-gDab] (Pentadecanoyl-[ξD][ξAbu(βξ-NH2)][ξPip][ξAsp(βξ-Me)][ξD]G[ξD]G[ξAbu(βξ-NH2)]([GABA-Dab])[ξV][ξP]; lactam 2-C), the MIC is 0.5 to 1 µg/mL.

Turning to `CCCCCCCCCCCCCCC(=O)NC(CC(=O)O)C(=O)NC1C(=O)N2CCCCC2C(=O)NC(C(C)C(=O)O)C(=O)NC(CC(=O)O)C(=O)NCC(=O)NC(CC(=O)O)C(=O)NCC(=O)NC(C(C)NC(=O)C2CCCCC2)C(=O)NC(C(C)C)C(=O)N2CCCC2C(=O)NC1C` (stereo not drawn) [Compound 206, C15-Amphomycin-9-cHexyl] (Pentadecanoyl-D[ξAbu(βξ-NH2)][Pip][ξAsp(βξ-Me)]DGDG[X41]VP; lactam 2-C; configuration not given here), the MIC was 8 µg/mL.

For the compound `CCCCCCCCCCCCNC(=O)NCC(=O)NC(CC(=O)O)C(=O)NC1C(=O)N2CCCCC2C(=O)NC(C(C)C(=O)O)C(=O)NC(CC(=O)O)C(=O)NCC(=O)NC(CC(=O)O)C(=O)NCC(=O)NC(C(C)N)C(=O)NC(C(C)C)C(=O)N2CCCC2C(=O)NC1C` (stereo not drawn) [Compound 254, CH3—(CH2)11—NH—C(═O)-Gly-Amphomycin] ({NH(CH2)11CH3-CO}-GD[ξAbu(βξ-NH2)][Pip][ξAsp(βξ-Me)]DGDG[ξAbu(3ξ-NH2)]VP; lactam 3-C; configuration not given here), the MIC lay within 2 to 4 µg/mL.

Take `CCCCCCCCCCCCCCC(=O)NC(CC(=O)O)C(=O)NC1C(=O)N2CCCCC2C(=O)NC(C(C)C(=O)O)C(=O)NC(CC(=O)O)C(=O)NCC(=O)NC(CC(=O)O)C(=O)NCC(=O)NC(C(C)NC(=O)CNCc2ccccc2)C(=O)NC(C(C)C)C(=O)N2CCCC2C(=O)NC1C` (stereo not drawn) [Compound 245, C15-Amphomycin-9-(N-Benzyl-Gly)] (Pentadecanoyl-D[ξAbu(βξ-NH2)][Pip][ξAsp(βξ-Me)]DGDG[X42]VP; lactam 2-C; configuration not given here): the minimum inhibitory concentration (MIC) is 1 µg/mL.

Staying with this assay, now noted: S. aureus (MSSA), CAMHB supplemented with 0.625 mM calcium, 24 hours at about 37° C.; a range = compound tested multiple times.
Turning to “CH3—(CH2)10—NH—C(═O)-(p-Phenylacetyl)-Amphomycin [Compound 290]”, the MIC was 1 µg/mL.

For C14-Amphomycin-9-gDab [Compound 139], the MIC is given as 139/4 μg/mL.

For the compound `CCCCCCCCCCCCCCCC(=O)NC(CC(=O)O)C(=O)NC1C(=O)N2CCCCC2C(=O)NC(C(C)C(=O)O)C(=O)NC(CC(=O)O)C(=O)NCC(=O)NC(CC(=O)O)C(=O)NCC(=O)NC(C(C)NC(=O)CNC)C(=O)NC(C(C)C)C(=O)N2CCCC2C(=O)NC1C` (stereo not shown) [Compound 75, C16-Amphomycin-9-Sar], the MIC was 75/1 μg/mL.

Values taken from patent US7868135B2, “Compositions of lipopeptide antibiotic derivatives and methods of use thereof” (priority 2003, dated 2011).
